The values that follow come from PubChem BioAssay (NCI).

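Step 1: Grow cells in 96-well plates. Step 2: Expose to compound for 48 hours at 5 concentrations. Step 3: Interpolate endpoints linearly; if unreached, use highest concentration. At the GI50, growth is halved. TGI: total growth inhibition.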

Common to all, as to test: DTP human tumour cell line panel, 48 h
Assay [1] concerns A498 renal.
Assay [2] deals with KM12 colon.
Assay [3] concerns MOLT-4 leukemia.
Assay [4] deals with HT29 colon.
In assay [5] the test system is SN12C renal.
In assay [6] the test system is CCRF-CEM leukemia.
Assay [7] deals with COLO 205 colon.
In assay [8] the test system is HL-60(TB) leukemia.
The subject of assay [9] is NCI-H226 lung.
In assay [10] the test system is OVCAR-4 ovarian.

`CC1=NN(c2cccc(Cl)c2)C(=O)/C1=C\C=C\c1ccccc1`: the GI50 in [1] was 17.7 µM; in [2], 1.64 µM; in [3] it was 3.17 µM; in assay [4] it was 2.98 µM; in [5], 2.44 µM; in assay [6] it was 3.14 µM. The GI50 in [7] is 2.36 µM; in assay [8], 3.14 µM; in assay [9], 2.68 µM; in assay [10] it was 3.37 µM. Further, the TGI in [1] was more than 100 µM; in [2], 3.1 µM; in assay [3], more than 100 µM; in [4] it was 7.4 µM; in assay [5] it was 7.53 µM; in assay [6], more than 100 µM. The TGI in assay [7] is 4.94 µM; in [8] it was more than 100 µM; in assay [9], 7.62 µM; in assay [10], more than 100 µM.
With `C[C@H]1COCCN1c1nc(-c2cnc(N)cc2C(F)F)nc(N2CCOCC2)n1`, the GI50 in assay [1] was 0.0301 µM; in assay [2], 0.318 µM; in assay [3] it was 0.225 µM; in [4] it was 0.176 µM; in assay [5], 0.159 µM; in assay [6], 0.285 µM. The GI50 was 0.179 µM in assay [7], 0.171 µM in assay [8], 0.127 µM in assay [9] and 0.174 µM in assay [10]. For the same compound, the TGI was 0.164 µM in assay [1]; 41 µM in assay [2]; 33 µM in [3]; more than 100 µM in assay [4]; more than 100 µM in assay [5]; more than 50.3 µM in assay [6]. Further, the total growth inhibition concentration (TGI) is 19.8 µM in [7], 97.8 µM in assay [8] and more than 100 µM in assay [9].
As for `CC1=CC(C)(C)Nc2ccc(Cc3ccc4c(c3)C(C)=CC(C)(C)N4)cc21`, the GI50 was 10.9 µM in assay [1]; 8.34 µM in assay [2]; 4.86 µM in assay [3]; 12.2 µM in [4]; 11.2 µM in [5]; 4.67 µM in assay [6]. For the same compound, the GI50 in assay [7] was 20.3 µM; in assay [8], 5.1 µM; in [9] it was 20.2 µM; in [10], 7.24 µM. In addition, the TGI in [1] is 61.4 µM; in assay [2], 72.6 µM; in assay [3], 54 µM; in assay [4], more than 100 µM; in [5], more than 100 µM; in [6], 59.6 µM. Moreover, the TGI in assay [7] is 45.2 µM; in assay [8], 34.1 µM; in [9] it was more than 100 µM; in [10], more than 100 µM.
As for `Cc1ccnc2c(NC(C)CCCN)cc(O)c(O)c12` (centres undefined), the GI50 in [1] was 33.4 µM; in assay [2] it was 31.5 µM; in assay [3], 6.61 µM; in assay [4] it was 8.07 µM; in [5] it was 2.86 µM; in assay [6] it was 4.62 µM. The GI50 was 5.15 µM in [7], 2.12 µM in [8], 27.7 µM in assay [9] and 3.11 µM in assay [10]. Moreover, the TGI is more than 100 µM in assay [1]; more than 100 µM in assay [2]; 34.5 µM in assay [3]; 51.8 µM in [4]; 13 µM in assay [5]; 29.3 µM in assay [6]. The TGI in assay [7] is 23.9 µM; in assay [8], 5.33 µM; in assay [9], more than 100 µM; in [10], 10.1 µM.
Take `Cn1cc(C2=C(c3cc[nH]c3)C(=O)NC2=O)c2ccccc21`: the GI50 in assay [1] was 8.98 µM; in assay [2], 25 µM; in assay [3] it was more than 25 µM; in assay [4], more than 25 µM; in assay [5] it was more than 25 µM; in assay [6], more than 25 µM. Besides, the GI50 in [7] is more than 25 µM; in assay [8], more than 25 µM; in assay [9], 15.5 µM; in assay [10], more than 25 µM. For the same compound, the TGI in assay [1], in assay [2], in assay [3], in assay [4], in [5] and in [6] was more than 25 µM throughout. In addition, the TGI in assay [7], in assay [8], in assay [9] and in assay [10] was more than 25 µM in each case.
`C[C@@]1(C(=O)O)CCC[C@]2(C)C1CC[C@]13C[C@@](O)(CO)[C@](O)(CC[C@]12O)C3` (some centres undefined): the GI50 in assay [1] was 75.1 µM; in [2] it was more than 100 µM; in assay [3] it was more than 100 µM; in [4], more than 100 µM; in assay [5], more than 100 µM; in assay [6] it was more than 100 µM. The GI50 in [7], in assay [8], in assay [9] and in assay [10] was more than 100 µM each time. The TGI in [1], in [2], in assay [3], in [4], in assay [5] and in assay [6] was more than 100 µM throughout. In addition, the TGI in assay [7], in assay [8], in assay [9] and in assay [10] was more than 100 µM each time.
Consider `Cc1ccc(C2[C@H]3C(=O)N(c4ccc(Cc5ccc(N6C(=O)[C@@H]7ON(c8ccccc8)C(c8ccc(C)cc8)[C@@H]7C6=O)cc5)cc4)C(=O)[C@H]3ON2c2ccccc2)cc1` (some centres undefined), for which the concentration for total growth inhibition (TGI) in [1], in assay [2], in assay [3], in [4], in [5] and in [6] was more than 100 µM each time. The TGI in assay [7], in assay [8], in assay [9] and in [10] was more than 100 µM throughout.
As to `CN(CCCN1C(=O)c2cccc3cc([N+](=O)[O-])cc(c23)C1=O)CCN(C)CCCN1C(=O)c2cccc3cc([N+](=O)[O-])cc(c23)C1=O`, the total growth inhibition concentration (TGI) in assay [1], in assay [2], in assay [3], in assay [4], in assay [5] and in assay [6] was more than 39.3 µM throughout. Besides, the concentration for total growth inhibition (TGI) in assay [7], in [8], in assay [9] and in assay [10] was more than 39.3 µM in each case.
With `CN(C)C(=S)/N=c1\ssc(=S)n1Cc1ccco1`, the TGI in [1] was more than 74.2 µM; in [2] it was more than 100 µM; in [3], more than 83.7 µM; in [4], more than 24.4 µM; in assay [5], more than 100 µM; in assay [6] it was 42.3 µM. Besides, the TGI in assay [7] was more than 100 µM; in [8] it was 8.2 µM; in [9] it was more than 100 µM; in [10], 66.8 µM.
For `Cc1cc(N(CCC#N)CCC#N)ccc1/C=C(\NC(=O)/C=C/c1ccccc1)C(=O)Nc1ccc(Cl)cc1`, the TGI in assay [1] was more than 100 µM; in assay [2] it was more than 94 µM; in [3], more than 100 µM; in [4], more than 100 µM; in assay [5] it was more than 100 µM; in [6] it was more than 100 µM. The TGI in [7] was 12.7 µM; in assay [8], more than 100 µM; in assay [9] it was more than 100 µM; in assay [10] it was more than 100 µM.

The term GI50 denotes the concentration giving 50% growth inhibition. By TGI is commonly meant the concentration giving total growth inhibition. High values mean lower sensitivity of the cells, low ones greater sensitivity of the cells.
